Test results from PMC3684613 (PLoS ONE, 2013).
Read-outs that look alike come from different tables or passages of the source.

What was measured:
[1] = system: P. falciparum 3D7; design: method as in ChEMBL-NTD; conditions: ref ChEMBL-NTD, cited from earlier work
[2] = system: P. falciparum 3D7; experiment: DAPI stain fluorescent high content imaging assay, P. falciparum 3D7 (confirmatory screen, Avery); conditions: Plasmodium falciparum; for EC50: 3D7, read-out: EC50_nM; for inhibition of growth at 5 µM: 3D7, read-out: percent_inh @ 5 uM
[3] = values follow the order of the source (GNF; GSK; StJude)
[4] = original screening data, source (GSK, GNF, StJude), several values separated by ';' in order of sources

Compound | EC50 [2] | inhibition of growth at 5 µM [2] | other results
COc1ccc(CNC(=O)c2cc3c(=O)n4ccccc4nc3n(CCc3ccccc3)c2=N)cc1 [MMV665881] | 1060 nM | 95% | EC50 [1, 3]: 330 nM
OC(CNC1CCCCC1)Cn1c2ccc(I)cc2c2cc(I)ccc21 (stereo not drawn) [MMV665882] | 466 nM | 97% | EC50 [1, 3]: 337 nM
O=C(Nc1cccc(-c2nc3ccccc3[nH]2)c1)c1cccc(NC(=O)c2ccco2)c1 [MMV665883] | 745 nM | 95% | EC50 [1, 4]: 360 nM
CC(Oc1ccc(NC(=O)c2cccs2)cc1)C(=O)c1ccc(Cl)cc1 (stereo not drawn) [MMV665886] | 1030 nM | 87% | EC50 [1, 3]: 774 nM
O=C(Nc1ccccc1O)c1ccc(Oc2cccc(C(=O)Nc3ccccc3O)c2)cc1 [MMV665888] |  | 91% | EC50 ([1]; source GSK): 799 nM
COc1ccc(-c2nonc2NC(=O)c2cccc(C)c2)cc1OC [MMV665890] |  | 95% | EC50 [1, 4]: 806 nM
c1ccc(-c2ccc(-c3nc4ccccc4[nH]3)cc2)cc1 [MMV665891] | 1070 nM | 52% | EC50 ([1]; source GSK): 809 nM
CC(=O)c1sc(NC(=O)Nc2ccc(C)cc2C)nc1C [MMV665894] | 536 nM | 64% | EC50 [1, 3]: 906 nM
COc1ccc2nc(N)nc(C)c2c1 [MMV665897] |  | 63% | EC50 ([1]; source GSK (TCMDC ids)): 927 nM
COc1cc(C(=O)Nc2ccc(-c3nc4ccccc4[nH]3)cc2)cc(OC)c1OC [MMV665898] | 1220 nM | 95% | EC50 [1, 3]: 982 nM
O=C(c1ccccc1F)N(Cc1ccc(Cl)cc1)c1ccccn1 [MMV665899] |  | 59% | EC50 ([1]; source GSK): 1020 nM
O=C(Nc1ccc(CN2CCOCC2)cc1)c1ccc(-c2ccc(Br)cc2)o1 [MMV665901] | 1360 nM | 96% | EC50 ([1]; source GSK): 1120 nM
N=c1n(CCN2CCCCC2)c2ccccc2n1CC(O)c1cccc(Br)c1 (stereo not drawn) [MMV665902] | 893 nM | 98% | EC50 ([1]; source GSK): 1140 nM
COCCn1c(C)nc2ccccc2c1=O [MMV665904] |  | 59% | EC50 [1, 4]: 1460 nM
Cc1ccc(-c2cc(C(=O)Nc3ccc(S(=O)(=O)N4CCCCC4)cc3)[nH]n2)c(O)c1 [MMV665906] | 535 nM | 94% | EC50 ([1]; source GSK): 1770 nM
COc1ccc(N2CCN(C(CNC(=O)CC(C)(C)C)c3ccc4c(c3)OCO4)CC2)cc1 (stereo not drawn) [MMV665908] |  | 95% | EC50 ([1]; source StJude (SJ ids)): 4280 nM
O=C(Nc1nc(-c2ccccn2)cs1)c1ccccc1Br [MMV665909] | 1360 nM | 97% | EC50 ([1]; source StJude): 4530 nM
CCOc1ccc(-c2nc(NC(=O)c3cccc(S(C)(=O)=O)c3)sc2C)cc1 [MMV665913] |  | 95% | EC50 ([1]; source StJude): 15000 nM
COc1ccccc1N1CCN(C(CNS(=O)(=O)c2ccc(Cl)cc2)c2cccnc2)CC1 (stereo not drawn) [MMV665914] |  | 93% | EC50 ([1]; source StJude): 15000 nM
COc1ccc(-c2nc(NC(=O)CS(=O)(=O)c3ccc(F)cc3)sc2C)cc1 [MMV665915] | 448 nM | 97% | EC50 ([1]; source GNF (GNF-Pf id)): 212 nM; EC50 ([1]; source GSK (TCMDC id)): 243 nM
COc1ccccc1CNC(=O)CCn1c(=O)[nH]c2ccccc2c1=O [MMV665916] | 72.6 nM | 64% | EC50 ([1]; source GNF (GNF-Pf id)): 537 nM
O=C(Nc1ccc(Cl)cc1)N1CCN(c2ccc3nncn3n2)CC1 [MMV665917] |  | 62% | EC50 ([1]; source GNF): 2060 nM
O=C(CSc1ccc2nnc(-c3cccc(F)c3)n2n1)Nc1ccc2c(c1)OCO2 [MMV665918] |  | 92% | EC50 ([1]; source GNF): 2110 nM
N=c1c2ccccc2nnn1-c1cccc(C(F)(F)F)c1 [MMV665923] |  | 83% | EC50 ([1]; source GNF (GNF-Pf ids)): 134 nM

Compound | EC50 [2] | inhibition of growth at 5 µM [2] | other results
COc1ccc(C(=O)C2CC2c2ccc(Cl)cc2)cc1 (stereo not drawn) [MMV665924] | 1060 nM | 94% | EC50 ([1]; source GNF (GNF-Pf ids)): 217 nM
O=C(CCl)NCCOc1ccc(Cl)cc1Cl [MMV665927] | 555 nM | 94% | EC50 [1, 3]: 538 nM
CCC(C)NCC(O)(c1ccc(Cl)cc1)c1ccc(Cl)cc1 (stereo not drawn) [MMV665928] | 642 nM | 98% | EC50 ([1]; source GNF): 639 nM; EC50 ([1]; source GSK): 843 nM
CCCCNCC(O)(c1ccc(Cl)cc1)c1ccc(Cl)cc1 [MMV665929] | 843 nM | 97% | EC50 ([1]; source GNF): 720 nM
O=C1c2ccccc2-c2nnc(-c3ccc(Br)cc3)cc21 [MMV665934] | 1070 nM | 99% | EC50 ([1]; source GNF (GNF-Pf ids)): 2500 nM
FC(F)(F)c1ccc(Nc2nnnc3ccccc23)cc1 [MMV665935] |  | 77% | EC50 ([1]; source GNF): 7720 nM; EC50 ([1]; source GSK): 692 nM
Cc1ccc(S(=O)(=O)c2c(COC(=O)c3cccc(C)c3)c(-c3ccccc3)nn2C)cc1 [MMV665936] |  | 95% | EC50 ([1]; source GNF (GNF-Pf ids)): 8400 nM
O=C(Nc1ccsc1C(=O)NC1CCCCC1)c1ccc(F)cc1 [MMV665939] |  | 86% | EC50 ([1]; source GSK): 1210 nM
CCOc1ccc(C=Cc2nc(=O)c3ccccc3o2)cc1 [MMV665940] | 560 nM | 95% | EC50 ([1]; source StJude): 188 nM
CN(C)c1ccc(C(O)(c2ccc(N(C)C)cc2)c2ccc(N(C)C)cc2)cc1 [MMV665941] | 255 nM | 96% | EC50 ([1]; source StJude (SJ id)): 620 nM
Nc1ccc(-c2nc3cc(Cc4ccc5[nH]c(-c6ccc(N)cc6)nc5c4)ccc3[nH]2)cc1 [MMV665943] | 1420 nM | 100% | EC50 ([1]; source GNF (GNF-Pf ids)): 243 nM; EC50 ([1]; source GSK (TCMDC ids)): 512 nM; EC50 ([1]; source StJude (SJ ids)): 1080 nM
COc1ccc(CN2CCN(Cc3ccccc3)CC2)c(O)c1 [MMV665944] | 1080 nM | 96% | EC50 ([1]; source StJude (SJ ids)): 1090 nM
CC(C)=CCN1CCC(C(=O)Nc2ccc(-c3nc4ccccc4[nH]3)cc2)CC1 [MMV665946] | 1160 nM | 96% | EC50 ([1]; source GSK): 908 nM; EC50 ([1]; source StJude): 1340 nM
O=C(Nc1ccccc1O)c1ccc(-c2ccc(Cl)cc2Cl)o1 [MMV665948] |  | 97% | EC50 ([1]; source StJude): 2460 nM
Oc1ccc(C(=C(Cl)Cl)c2ccc(O)cc2)cc1 [MMV665949] |  | 95% | EC50 ([1]; source StJude (SJ ids)): 2470 nM
O=C(Nc1ccc(F)c(Cl)c1)Nc1ccc(Cl)c(Cl)c1 [MMV665953] | 2060 nM | 95% | EC50 ([1]; source StJude): 5410 nM
O=C(NCC1Cc2cccc(-c3ccncc3)c2O1)c1csc2c1CCCC2 (stereo not drawn) [MMV665954] | 1720 nM | 87% | EC50 ([1]; source StJude): 8740 nM
CCN(CC)CCCNc1nc(-c2ccc(Cl)cc2)nc2ccccc12 [MMV665961] |  | 92% | EC50 ([1]; source StJude): 15000 nM
COc1cccc(C(=O)NC(c2ccc(C)cc2)c2cc(Cl)c3cccnc3c2O)c1 (stereo not drawn) [MMV665969] | 393 nM | 97% | EC50 ([1]; source StJude (SJ ids)): 15000 nM
CCOC(=O)C1=C(C)N=c2sc(=Cc3cc(Cl)ccc3O)c(=O)n2C1c1ccc(OC)cc1 (stereo not drawn) [MMV665971] | 489 nM | 97% | EC50 ([1]; source GSK (TCMDC ids)): 746 nM; EC50 ([1]; source StJude (SJ ids)): 15000 nM
O=C(Cc1ccccc1)NC(c1ccc(Cl)cc1)c1c(O)ccc2ccccc12 (stereo not drawn) [MMV665972] | 1140 nM | 97% | EC50 [1, 3]: 15000 nM
CCOC(=O)c1cn(CC)c2cc(N(C)CCc3ccc(OC)c(OC)c3)c(F)cc2c1=O [MMV665977] | 205 nM | 99% | EC50 ([1]; source GNF (GNF-Pf id)): 103 nM; EC50 ([1]; source GSK (TCMDC id)): 425 nM
FC(F)(F)c1cccc(CNC2CCN(CCc3ccccc3)CC2)c1 [MMV665979] | 685 nM | 96% | EC50 ([1]; source GNF): 174 nM
